Results: patent US12006542B2, “Force-modulated hybridization for visualizing nucleic acid length and function” (University of Houston System, priority 2017, dated 2024)

Columns and labels:
[1] = system: DNA duplex, enzyme-binding segment for DpnII; assay: Force-modulated drug-DNA binding determination with DNA-cleaving enzyme DpnII (visual particle immobilization); details: DpnII present; after ~1 pN force
Description: (§1) To determine the exact binding site of drugs on nucleic acids, a derived scheme contains a magnetically labeled DNA and its complementary strand, in the presence of the drug to be analyzed and a DNA-cleaving enzyme. The binding site of the drug can be precisely determined by force modulation following surface immobilization.
(§2) FIG. 1D can be utilized to illustrate a system 100 for measuring drug-DNA binding. A magnetically labeled DNA strand 102 is hybridized with its complementary strand 104, in the presence of a drug molecule 106 and a DNA-cleaving enzyme 107. If the drug binds with the DNA specifically at the location of the enzyme, the enzyme will not be able to cleave the duplex. Consequently, the magnetic particles will be able to be immobilized on the surface via the biotin 105 on complementary strand 104, showing yellowish color in image 108(a) and being assigned as “1”. […] Thus, the magnetic particles will not be able to bind with the surface because of the absence of a functional group (such as biotin 105 shown in FIG. 1D) to interact with the matching functional group on the surface, showing as clear and being assigned as “0” in image 108(b).
(§3) The derived scheme presented in FIG. 1D was used to precisely determine the binding sites of drug molecules. […]

[2] = system: segment of the DNA duplex specified by EcoRI; assay: Dissociation force of drug-DNA binding, segment specified by EcoRI; details: FIG. 5C blue section
Description: (§6) The dissociation force can be further used to quantitatively distinguish the binding strength of different drug molecules at each and every specific nucleotide sequence. […] This segment is specifically chosen because of the addition of enzyme DpnII.

[3] = system: DNA duplex, enzyme-binding segment for EcoRI; assay: Force-modulated drug-DNA binding determination with DNA-cleaving enzyme EcoRI (visual particle immobilization); details: EcoRI present; after ~1 pN force
Description: as §1, §2, §3

[4] = system: DNA duplex, CTAG (DpnII); assay: Multiplexed sample wells, ultrasound force through a piezo plate, DpnII; format: binding; details: 100 μM drug, lane 2
Protocol: (§4) A shown in FIG. 7A, a new system was designed consisting of a puncher, an incubator, and a displayer. After incubating the sample, the puncher will be used to break the bottom of the incubator so the sample will be transferred to the corresponding wells on the displayer. The bottom of the displayer was functionalized, for example with streptavidin, so that magnetic particles will be able to be immobilized through a labeled DNA duplex, for example with biotin. A mechanical force is then applied on the displayer followed by final inspection and measurement.
(§5) The samples within each lane were under identical conditions. 1: DNA duplex with 100 μM daunorubicin and DpnII; 2: DNA duplex with 100 μM netropsin and DpnII; 3: DNA duplex; 4: DNA duplex incubated with 100 μM daunomycin and EcoRI; 5: DNA duplex with 100 μM netropsin and ECoRI. After applying ultrasound through a piezo plate, only the particles in lanes 2 and […] were removed, indicating weak binding between netropsin and CTAG (lane 2), and between daunomycin and the EcoRI binding site (lane 4).

[5] = system: segment of the DNA duplex specified by DpnII; assay: Dissociation force of drug-DNA binding, segment chosen by DpnII; details: for order of binding strength (dissociation force): DNA segment chosen by addition of DpnII, FIG. 5C red section
Description: as §6

[6] = relative to doxorubicin; cited from earlier work
[7] = system: DNA duplex, EcoRI binding site; assay: Multiplexed sample wells, ultrasound force through a piezo plate, EcoRI; details: 100 μM drug, lane 4
Protocol: as §4, §5

[8] = system: DNA; assay: Laser transmission quantification of immobilized particles at different drug concentrations; format: binding; details: fitting of transmission profile vs drug concentration
Description: The detection was achieved by using a photodetector (DET100A, Thorlabs) coupled with a voltmeter. […] Fitting of the profile yielded a binding constant of 9±2×10^4 M^−1, consistent with the results using a sensitive atomic magnetometer.

Cn1cc(NC(=O)c2cc(NC(=O)CN=C(N)N)cn2C)cc1C(=O)NCCC(=N)N [netropsin]
blocking of DpnII binding site on DNA duplex (particle immobilization) [1]: does not interfere with the binding of DpnII | rank of binding strength (dissociation force) [2]: second strongest | blocking of EcoRI on DNA duplex (particle immobilization) [3]: able to block EcoRI | binding with CTAG after ultrasound [4]: weak binding | order of binding strength (dissociation force) [5]: daunomycin, doxorubicin > epirubicin >> daunomycin >> netropsin

COc1cccc2c1C(=O)c1c(O)c3c(c(O)c1C2=O)C[C@@](O)(C(=O)CO)C[C@@H]3O[C@H]1C[C@H](N)[C@H](O)[C@H](C)O1 [doxorubicin]
order of binding strength (dissociation force) [5]: daunomycin, doxorubicin > epirubicin >> daunomycin >> netropsin

COc1cccc2c1C(=O)c1c(O)c3c(c(O)c1C2=O)C[C@@](O)(C(=O)CO)C[C@@H]3O[C@H]1C[C@H](N)[C@@H](O)[C@H](C)O1 [epirubicin]
toxicity in chemotherapy [6]: less toxic | order of binding strength (dissociation force) [5]: daunomycin, doxorubicin > epirubicin >> daunomycin >> netropsin | sequence selectivity of DNA binding ([5]; comparison of DpnII and EcoRI segments): more sequence-selective than doxorubicin

COc1cccc2c1C(=O)c1c(O)c3c(c(O)c1C2=O)C[C@@](O)(C(C)=O)C[C@@H]3O[C@H]1C[C@H](N)[C@H](O)[C@H](C)O1 [daunomycin]
blocking of DpnII binding site on DNA duplex (particle immobilization) [1]: blocked the binding site of DpnII | binding with the EcoRI binding site after ultrasound [7]: weak binding | binding constant [8]: 9±2×10^4 M^−1 | blocking of EcoRI on DNA duplex (particle immobilization) [3]: could not | order of binding strength (dissociation force) [5]: daunomycin, doxorubicin > epirubicin >> daunomycin >> netropsin
